The target in this assay is T1, human GPR120 (Homo sapiens, UniProt Q5NUL3).
T1 construct: expressed in transfected cells
T1 sequence (Q5NUL3 1-361): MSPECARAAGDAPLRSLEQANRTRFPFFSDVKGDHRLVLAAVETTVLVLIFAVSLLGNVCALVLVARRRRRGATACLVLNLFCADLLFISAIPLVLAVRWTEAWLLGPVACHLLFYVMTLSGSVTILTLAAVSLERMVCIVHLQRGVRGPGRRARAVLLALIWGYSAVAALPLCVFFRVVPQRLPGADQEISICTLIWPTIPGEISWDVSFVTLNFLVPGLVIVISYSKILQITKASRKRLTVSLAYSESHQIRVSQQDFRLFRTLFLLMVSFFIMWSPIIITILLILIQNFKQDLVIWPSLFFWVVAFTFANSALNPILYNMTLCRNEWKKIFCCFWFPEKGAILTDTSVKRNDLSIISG
Briefly: Human GPR120 IP1 Assay (inositol phosphate turnover, CisBio IP-One kit). Type of assay: cell-based. The following applies: IP1 accumulation in CHO-K1 cells stably expressing the short form of human GPR120; 60 min compound incubation; 4-parameter fit; read-out: hGPR120 EC50. An excerpt:
Human GPR120 IP1 Assay Principle
The binding of small molecule agonists to the G-protein-coupled receptor GPR120 activates phospholipase C, and leads to the generation of inositol 1,4,5-trisphosphate (InsP3 or IP3). IP3 is subsequently de-phosphorylated to IP1, which accumulates in cells and is stable in the presence of lithium chloride.
In the present method, agonist-induced activation of the human GPR120 receptor was monitored by measuring the accumulation of IP1 in CHO-K1 cells that were stably expressing the short form of human GPR120 (Accession #NM_001195755). Following agonist addition, GPR120 activation and subsequent accumulation of IP1 was measured using a homogeneous Time Resolved Fluorescence-based ELISA commercially available from CisBio (IP-one ELISA Kit). The IP-One ELISA was a competitive immunoassay which uses IP1 labeled with […] and a terbium cryptate-labeled anti-IP1 monoclonal antibody. […] The signal loss was then back calculated to IP1 concentration using an IP1 standard curve. Determination of IP1 concentration was a direct measure of GPR120 activation and was used to determine compound potency (EC50).
Generation of GPR120-Expressing Cells:
Human GPR120 stable cell-lines were generated in CHO cells. The expression plasmids were transfected using lipofectamine (Life Technologies) following manufacturer's instructions. Stable cell-lines were generated following drug selection and single cell cloning.
Inositol Phosphate Turnover (IP1) Assay:
The assay was performed in 384-well format. CHO cells stably expressing human GPR120 were plated at […] per well in growth medium (DMEM/F12, 10% fetal calf serum). Cell plates were then incubated 16 hours at 37 degrees in a 5% CO2 incubator. Measurement of Inositol Phosphate Turnover (IP1) was performed using the CisBio IP-One kit (Part number 62IPAPEB). After the 16 hour incubation, the growth media was removed by centrifugation using the BlueWasher (AusWasher GUI Ver. v1.0.1.8) Protocol #21-“Light Dry” and 10 ul of stimulation buffer (prepared as described in the kit) was added to each well. In a separate plate, compounds were diluted in DMSO (200-fold over the final concentration in the assay well) and 50 nl was acoustically transferred to the appropriate well in the assay cell plate. The plates were then incubated for 60 minutes at 37 degrees in a 5% CO2 incubator. 10 ul of detection buffer (also prepared as described in the IP-One kit) was added to each well and the plates were incubated at room temperature for 60 minutes in the dark. The plates were then read in a Perkin Elmer EnVision or equivalent reader able to measure FRET. Fluorescent ratio of emission at 665 and 620 nm was then converted to the IP1 concentration by back calculating from an IP1 standard curve prepared at the time of the assay. The data was normalized to % activity using a reference compound, and the EC50 values were determined using a standard 4-parameter fit.

Molecules are shown by their SMILES.

As a reminder, the EC50 is the concentration needed to bring the measured effect to its halfway point. For `N#Cc1c(F)cc(OC2CCC2)cc1N1CCc2cc(CCC(=O)O)ccc2C1` [Example 55, 3-{2-[2-cyano-5-(cyclobutyloxy)-3-fluorophenyl]-1,2,3,4-tetrahydro-isoquinolin-6-yl}propanoic acid], the EC50 was 25 nM. To `O=C(O)CCc1ccc2c(c1F)CCN(c1cc(C(F)(F)C3CCC3)ccc1F)C2` [Example 56, 3-(2-(5-(cyclobutyldifluoromethyl)-2-fluorophenyl)-5-fluoro-1,2,3,4-tetrahydro-isoquinolin-6-yl)propanoic acid] belongs 40 nM. The same measure for `Cc1cc2c(c(F)c1CCC(=O)O)CCN(c1cc(OC(F)(F)F)ccc1F)C2` [Example 58, 3-(5-fluoro-2-(2-fluoro-5-(trifluoromethoxy)phenyl)-7-methyl-1,2,3,4-tetra-hydroisoquinolin-6-yl)propanoic acid]: 472 nM; for `O=C(O)CCc1ccc2c(c1F)CCN(c1c(-c3ccc(Cl)cc3)nsc1C(F)(F)F)C2` [Example 59, 3-(2-(3-(4-chlorophenyl)-5-(trifluoromethyl)isothiazol-4-yl)-5-fluoro-1,2,3,4-tetrahydroisoquinolin-6-yl)propanoic acid]: 1630 nM; for `O=C(O)CCc1ccc2c(c1F)CCN(c1cc(OC3CCC3)ccc1F)C2` [Example 61, 3-(2-(5-cyclobutoxy-2-fluorophenyl)-5-fluoro-1,2,3,4-tetrahydro-isoquinolin-6-yl)-propanoic acid]: 28 nM. To `Cc1cnc(Oc2cc(Cl)c(F)c(N3CCc4c(ccc(CCC(=O)O)c4F)C3)c2)s1` [Example 62, 3-(2-{3-chloro-2-fluoro-5-[(5-methyl-1,3-thiazol-2-yl)oxy]phenyl}-5-fluoro-1,2,3,4-tetrahydroisoquinolin-6-yl)propanoic acid] belongs 3 nM.

Turning to `O=C(O)CCc1ccc2c(c1F)CCN(c1nc(OC3CCC3)ccc1F)C2` [Example 63, 3-{2-[6-(cyclobutyloxy)-3-fluoro-pyridin-2-yl]-5-fluoro-1,2,3,4-tetra-hydro-isoquinolin-6-yl} propanoic acid], the EC50 worked out at 14 nM. To `O=C(O)CCc1ccc2c(c1F)CCN(c1cc(OC3CCC3)cc(F)c1F)C2` [Example 64, 3-{2-[5-(cyclobutyloxy)-2,3-difluorophenyl]-5-fluoro-1,2,3,4-tetra-hydroisoquinolin-6-yl}propanoic acid] belongs 15 nM; to `O=C(O)CCc1ccc2c(c1F)CCN(c1cc(OC(F)(F)F)cc(Cl)c1F)C2` [Example 65, 3-{2-[3-chloro-2-fluoro-5-(trifluoromethoxy)phenyl]-5-fluoro-1,2,3,4-tetra-hydroisoquinolin-6-yl} propanoic acid], 37 nM; to `CO[C@H]1C[C@H](Oc2cc(F)c(F)c(N3CCc4c(ccc(CCC(=O)O)c4F)C3)c2)C1` [Example 66, 3-(2-{2,3-difluoro-5-[(trans-3-methoxycyclobutyl)oxy]phenyl}-5-fluoro-1,2,3,4-tetrahydroisoquino-lin-6-yl)-propanoic acid], 41 nM.

`O=C(O)CCc1ccc2c(c1Cl)CCN(c1cc(OC(F)(F)F)ccc1F)C2` [Example 72, 3-{5-chloro-2-[2-fluoro-5-(trifluoromethoxy)phenyl]-1,2,3,4-tetrahydroiso-quinolin-6-yl}propanoic acid]: the EC50 was 1170 nM. To `N#Cc1ccc(OC2CCC2)cc1N1CCc2c(ccc(CCC(=O)O)c2F)C1` [Example 76, 3-{2-[2-cyano-5-(cyclobutyloxy)-phenyl]-5-fluoro-1,2,3,4-tetrahydro-isoquinolin-6-yl}propanoic acid] belongs 845 nM.

For `CC(Cc1ccc2c(c1F)CCN(c1cc(OC(F)(F)F)ccc1F)C2)C(=O)O` (stereo not shown) [Example 77, 3-{5-fluoro-2-[2-fluoro-5-(trifluoromethoxy)phenyl]-1,2,3,4-tetrahydro-isoquinolin-6-yl}-2-methyl-propanoic acid], the concentration giving a half-maximal response (EC50) worked out at 5880 nM. As for `N#Cc1ccc(OC(F)(F)F)cc1N1CCc2c(ccc(CCC(=O)O)c2F)C1` [Example 78, 3-{2-[2-cyano-5-(trifluoromethoxy)phenyl]-5-fluoro-1,2,3,4-tetrahydro-isoquinolin-6-yl}propanoic acid], the concentration for a half-maximal effect (EC50) stood at 19 nM. To `CC(Cc1ccc2c(c1F)CCN(c1cc(OC3CCC3)cc(F)c1C#N)C2)C(=O)O` (stereo not shown) [Example 79, 3-(2-(2-cyano-5-cyclobutyloxy-3-fluorophenyl)-5-fluoro-1,2,3,4-tetra hydroisoquinolin-6-yl)-2-methyl-propanoic acid] belongs 471 nM; to `O=C(O)CCc1ccc2c(c1F)CCN(c1cc(OC(F)(F)F)ccc1F)C2` [Example 80, 3-{5-fluoro-2-[2-fluoro-5-(trifluoromethoxy)phenyl]-1,2,3,4-tetrahydro-isoquinolin-6-yl}propanoic acid], 3120 nM. To `O=C(O)CCc1ccc2c(c1F)CCN(c1cc(OC3CCC3)ccc1F)C2` [Example 81, 3-{2-[5-(cyclobutyloxy)-2-fluoro-phenyl]-5-fluoro-1,2,3,4-tetrahydro-isoquinolin-6-yl}propanoic acid] belongs 48 nM; to `O=C(O)[C@@H]1C[C@H]1c1ccc2c(c1)CCN(c1cc(OC3CCC3)cc(F)c1F)C2` [Example 85, (1R,2R)-2-{2-[5-(cyclobutyloxy)-2,3-difluorophenyl]-1,2,3,4-tetra-hydroisoquinolin-6-yl}cyclo-propane-carboxylic acid], 40 nM; to `O=C(O)[C@@H]1C[C@H]1c1ccc2c(c1)CCN(c1cc(OC(F)(F)F)ccc1F)C2` [Example 87, (1R,2R)-2-{2-[2-fluoro-5-(trifluoro-methoxy)phenyl]-1,2,3,4-tetra hydroisoquinolin-6-yl}cyclo-propane carboxylic acid], 74 nM.

Take `O=C(O)[C@H]1C[C@@H]1c1ccc2c(c1)CCN(c1cc(OC(F)(F)F)ccc1F)C2` [Example 88, (1S,2S)-2-{2-[2-fluoro-5-(trifluoro-methoxy)phenyl]-1,2,3,4-tetra hydroisoquinolin-6-yl}cyclo-propane carboxylic acid]: the EC50 worked out at 110 nM. The same measure for `CO[C@H]1C[C@H](Oc2cc(C#N)c(F)c(N3CCc4cc([C@@H]5C[C@H]5C(=O)O)ccc4C3)c2)C1` [Example 89, (1R,2R)-2-(2-{3-cyano-2-fluoro-5-[(trans-3-methoxycyclobutyl)oxy]phenyl}-1,2,3,4-tetrahydro-isoquinolin-6-yl)cyclopropane-carboxylic acid]: 185 nM; for `O=C(O)[C@H]1C[C@@H]1c1ccc2c(c1)CCN(Cc1cc(OC(F)(F)F)ccc1F)C2` [Example 90, (1S,2S)-2-{2-[2-fluoro-5-(trifluoro-methoxy)benzyl]-1,2,3,4-tetra hydroisoquinolin-6-yl}cyclo-propane carboxylic acid]: 250 nM.

With `O=C(O)[C@H]1C[C@@H]1c1ccc2c(c1)CCN(c1cc(OC3CCC3)cc(Cl)c1F)C2` [Example 91, (1S,2S)-2-{2-[3-chloro-5-(cyclobutyloxy)-2-fluorophenyl]-1,2,3,4-tetrahydroisoquinolin-6-yl} cyclopropane carboxylic acid], the EC50 was determined as 59 nM. Regarding `Cc1nn(-c2ccc(F)cc2)c(N2CCc3cc(C4CC4C(=O)O)ccc3C2)c1F` (stereo not shown) [Example 92, 2-{2-[4-fluoro-1-(4-fluorophenyl)-3-methyl-1H-pyrazol-5-yl]-1,2,3,4-tetrahydroisoquinolin-6-yl} cyclo-propanecarboxylic acid], the EC50 was found to be 482 nM. To `O=C(O)[C@H]1C[C@@H]1c1ccc2c(c1)CCN(Cc1cc(C(F)(F)F)cc(Cl)c1F)C2` [Example 93, (1S,2S)-2-{2-[3-chloro-2-fluoro-5-(trifluoromethyl)benzyl]-1,2,3,4-tetrahydroisoquinolin-6-yl} cyclopropanecarboxylic acid] belongs 350 nM.

The values above are taken from patent US11161819B2, “Substituted tetrahydroisoquinoline compounds useful as GPR120 agonists” (Merck Sharp & Dohme Corp., priority 2016, dated 2021).
